According to patent US20240082118A1, “TOPICAL COMPOSITIONS AND METHODS OF PREPARING THE SAME” (LANDA LABS (2012) LTD., priority 2021, published 2024):

Tested on: skin of pigs' ears
Test: Ex vivo penetration of fluorescently marked nano-elements into pig ear skin
Assay type: in vitro ADME
Conditions: marker in water, or in water with the surfactants of Composition 2.21
Procedure: The distribution of nano-elements of the present compositions in various skin layers was tested ex vivo by applying onto the skin of pigs' ears nano-elements including a fluorescent dye (Nile red) allowing histological monitoring of their presence within the layers of the tissue onto which they were applied.
Tested composition (2) was prepared by adding 2 mg of Nile red fluorescent marker during the preparation of the CSSC premix, as described in Example 2.
The compositions were tested on two freshly harvested pig ears, collected on the same day, and kept fresh and cooled till use. The ears were washed with excess saline solution and wiped dry. They were then immobilized for the duration of the study by taping them onto a glass surface, their inner side facing down. Each ear was marked on its outer side with 6 circles having a diameter of about 1 cm.
25 microliters of each one of the samples were applied onto the skin near the center of the marked circle, each tested composition being applied in two or more separate circles for repeats. The ears with the applied test samples were then placed in an oven for an incubation time of 20 hours at a temperature of 32° C., to simulate the pigs' body temperature. […]
The tissue sections were evaluated by an expert for the presence and intensity of the marker using a fluorescence microscope at objective magnification of ×10. […]

- penetration of the fluorescent marker into skin without nano-elements: No penetration
Compound: CCN(CC)c1ccc2nc3c4ccccc4c(=O)cc-3oc2c1 [Nile red, 9-(diethylamino)-5H-benzo[a]phenoxazin-5-one]
